Patent publication US12433876B2, “Septin inhibitors for treatment of cancers” (UNIVERSITY OF ROCHESTER, priority 2019, dated 2025)

Assays:
BXPC-3 cells [1] = test: Live/Dead dye flow cytometry, BXPC-3; assay type: cell-based, human; conditions: BXPC-3, 3 μM, 48 hours
Experimental: Cell Lines, Cell Culture, and Reagents. PANC-1, BXPC-3 and CAPAN-1, SKOV-3, MCF7, MDA-MD-231 cells were obtained from ATCC and maintained in DMEM, RPMI-1640 and IMDM supplemented with 10% fetal calf serum penicillin (100 units/mL), and streptomycin (100 μg/mL) at 37° C. with 5% CO2 in a humidified incubator. JIMT-1 cells were purchased from AddexBio Inc, USA (catalog number: C0006005) and maintained in 10% FBS and antibiotic supplemented DMEM. […] The reaction was monitored using thin-layer chromatography plates with DCM-MeOH or pure ethyl acetate as eluent. Spots were monitored in a UV chamber. […] ICM scores for each compound and their poses were calculated and compared with FCF. […] Cell viability of PANC-1, BXPC-3 and CAPAN-1 pancreatic cancer cells treated with UR214-9 was measured using the Cell Titre96R Aqueous One Solution Cell Proliferation Assay (Promega Corp., catalog number: G3580) following the procedure published earlier. […] The cells were analyzed by a 305 flow cytometer and relative live and dead cell population was calculated by inputting equal number of cells in both vehicle and control group.

BXPC-3 cells [2] = test: Cell cycle analysis (PI, flow cytometry), BXPC-3; assay type: cell-based, human; conditions: BXPC-3, 100 nM
Experimental: For cell cycle analysis, BXPC-3 and PANC-1 and JIMT-1 cells (100,000/well) were seeded overnight in a 6 well dishes and allowed to adhere overnight. Media was replaced with fresh complete medium supplemented with DMSO or UR214-9 (100 nM and 3 μM) and cells were incubated for 72 hours. The media containing the drugs was removed and cells were washed twice with PBS and trypsinized gently. The cells were collected in 15 mL tubes, complete DMEM media was added to block trypsin and cells were centrifuged. The supernatants were removed and cells were gently treated with 70% cold-EtOH for 30 minutes. The fixed cells were centrifuged and the pellets obtained were collected in flow cytometry tubes and stained with preformulated PI/RNase solution (Cell Signaling Technology, catalog number: 4087s) for 30 minutes. The PI content was analyzed using a flow cytometer. Data was processed using Flowjo software.

pSTAT-3 = test: Immunoblot of phosphorylated STAT-3; assay type: cell-based
actin = test: Confocal analysis of actin filaments (Phalloidin-TRITC); assay type: cell-based; conditions: PANC-1 and JIMT1 cells, for 48 hours

O=C(Nc1cc(Cl)nc(Cl)c1)Nc1cccc(SC(F)(F)F)c1F [UR214-9]
dead cells (BXPC-3 cells [1]): 29.4% | cell cycle distribution (BXPC-3 cells [2]): no change in cell cycle distribution | phosphorylation of STAT-3 (pSTAT-3; MDA-MB-231, JIMT-1 and MCF-7 cells, 10 and 30 μM, 24 hours): reduced phosphorylation of STAT-3 | phosphorylated STAT-3 (pSTAT-3; PANC-1): reduced phosphorylated STAT-3 | actin filaments (actin): actin filament disruption
